Key:
Assay in all cases: relative viability (nuclei count vs DMSO), 5 days (fraction); higher = more cells survive
[1] = compound: COc1nc(N)nc2c1ncn2[C@@H]1O[C@H](CO)[C@@H](O)[C@@H]1O [Nelarabine] + CC(=O)c1c(C)c2cnc(Nc3ccc(N4CCNCC4)cn3)nc2n(C2CCCC2)c1=O [Palbociclib] (partner 0.5 µM)
Procedure, shortened: (§1)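 Lung cancer cell lines were pin-tool dosed in 1536-well plates on the day after seeding, with either a lone drug or a fixed anchor-drug dose plus five library-drug doses (not always all listed) in √10 steps. Nuclei were counted on 4× images after 5 days. Relative viability is the ratio of treated-well to vehicle-well nuclei counts, with each value a median of duplicate plates.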

[2] = compound: COc1nc(N)nc2c1ncn2[C@@H]1O[C@H](CO)[C@@H](O)[C@@H]1O [Nelarabine] + CS(=O)(=O)N1CCN(Cc2cc3nc(-c4cccc5[nH]ncc45)nc(N4CCOCC4)c3s2)CC1 [Pictilisib] (partner 1 µM)
Procedure, shortened: as §1

[3] = compound: COc1nc(N)nc2c1ncn2[C@@H]1O[C@H](CO)[C@@H](O)[C@@H]1O [Nelarabine] + NC(=O)Nc1cc(-c2cccc(F)c2)sc1C(=O)N[C@H]1CCCNC1 [AZD7762] (partner 0.2 µM)
Procedure, shortened: as §1

[4] = compound: COc1nc(N)nc2c1ncn2[C@@H]1O[C@H](CO)[C@@H](O)[C@@H]1O [Nelarabine] + Nc1ncn([C@H]2C[C@H](O)[C@@H](CO)O2)c(=O)n1 [Decitabine] (partner 2 µM)
Procedure, shortened: as §1

EMC-BAC-2
relative viability ([1]; first compound 0.01 µM): 0.539
relative viability ([1]; first compound 0.03162 µM): 0.514
relative viability ([1]; first compound 0.1 µM): 0.512
relative viability ([1]; first compound 0.3162 µM): 0.529
relative viability ([1]; first compound 1 µM): 0.514
relative viability ([2]; first compound 0.01 µM): 0.548
relative viability ([2]; first compound 0.03162 µM): 0.544
relative viability ([2]; first compound 0.1 µM): 0.543
relative viability ([2]; first compound 0.3162 µM): 0.558
relative viability ([2]; first compound 1 µM): 0.542
relative viability ([3]; first compound 0.01 µM): 1.2
relative viability ([3]; first compound 0.03162 µM): 1.1
relative viability ([3]; first compound 0.1 µM): 1.18
relative viability ([3]; first compound 0.3162 µM): 1.22
relative viability ([3]; first compound 1 µM): 1.17
relative viability ([4]; first compound 0.01 µM): 0.885
relative viability ([4]; first compound 0.03162 µM): 1.11
relative viability ([4]; first compound 0.1 µM): 0.912
relative viability ([4]; first compound 0.3162 µM): 0.864
relative viability ([4]; first compound 1 µM): 0.995

Source: the supplement of paper PMC10307832
